Laboratory results: a melting point compilation (Tetko et al.; mined from patent text by program, amines drawn as free bases though some values may be those of a salt)

`O=C1C(=O)c2ccccc2C2=C1SCC1(CCN(CCCc3ccccc3)CC1)O2` gave a melting point of 112 to 114 °C.
With `NCc1ccc(Br)nc1` the melting point was 57 to 58 °C.
With `CC(C)(C)Oc1ccc(C(=O)NCCCCCCCNC(=O)c2ccc(OC(C)(C)C)cc2)cc1` the melting point was 135 to 136 °C.
In the case of `O=C1Nc2cccc(Br)c2C(=O)N2CCC[C@@H]12`, the melting point was 221 to 224 °C.
Compound `CCCCN(CCCC)Cc1nnc(-c2ncn3c2CN(C)C(=O)c2ccccc2-3)o1` has a melting point of 211 to 213 °C.
With `CC(C)(C)c1ccc(Cl)c(C(=O)O)c1` the melting point was 99 to 103 °C.
Work on `CNC(=O)NC(Cc1c[nH]c2ccccc12)C(=O)OCc1cc(C)cc(C)c1` (centres undefined) yielded a melting point of 66 to 68 °C.
For `CCOC(=O)Cc1cnc2c(NC(=O)c3c(Cl)cccc3Cl)cccc2c1`, the melting point was 151 °C.
Compound `COC(=O)NC1CN(C(=O)c2cc(OC)c(OC)c(OC)c2)CCN1C(=O)C1=Cc2cc(OC)c(OC)cc2CCC1` (centres undefined) has a melting point of 143 to 145 °C.
With `CS(=O)(=O)c1ccc(-c2[nH]c3ccc(F)cc3c2-c2ccccc2)cc1` the melting point was 243 to 245 °C.
Compound `COc1cccc(Cl)c1C1Cc2c(ccn2C)C2C(=O)NC(=O)C12` (centres undefined) has a melting point of 186 to 188 °C.
For `CCCCCCCCCCCCCCCCCCOc1cc(OCCCCCc2cccc(O)c2O)cc(N(CC(=O)O)CC(=O)O)c1`, the melting point was 129 to 131 °C.
`COc1ccc(CN2C(=O)C3CC(c4ccccc4)(C3)C2=O)cc1` gave a melting point of 87 to 88 °C.
For `CN(CCOc1ccc(C=O)cc1)c1ncccn1`, the melting point was 74 to 75 °C.
In the case of `CCCCc1nc2ccccc2n1Cc1ccc(-c2ccccc2CO)cc1`, the melting point was 162 to 163 °C.
Compound `CN1C2=NCCN2C(=O)c2cc(Cl)ccc21` has a melting point of 200 to 202 °C.
`CCc1ccc(N2CCN(c3c(C)c(C)c4c(c3C)CC(C)(C)O4)CC2)cc1` showed a melting point of 152 to 155 °C.
Work on `CC(C)(C)[Si](C)(C)OC1CN(c2ccc([N+](=O)[O-])cc2F)C1` yielded a melting point of 98.5 to 99.5 °C.
Work on `O=C(O)CCCc1cc2nc(Cl)ccc2n1S(=O)(=O)c1ccc(-c2ccncc2)cc1` yielded a melting point of 174 °C.
Work on `O=CC=C(Cl)c1cccc([N+](=O)[O-])c1` yielded a melting point of 83 °C.
With `CCOCCc1c(N=[N+]=[N-])nc(NC(=O)NCC(=O)O)nc1-c1ccccc1` the melting point was 160 °C.
Work on `CC(Nc1ccccc1O)=C1C(=O)OC(=O)C(C(=O)C=Cc2ccc(O)cc2)=C1O` yielded a melting point of 257 to 260 °C.
Work on `O=C(O)c1ccc(C(c2ccccc2)c2ccc(Cl)cc2)cn1` (centres undefined) yielded a melting point of 200 to 203 °C.
Compound `Cc1cc(C)n(-c2nc(Nc3cc(C(F)(F)F)cc(C(F)(F)F)c3)c3ccccc3n2)n1` has a melting point of 169 to 172 °C.
For `Cc1nc2c(c3c1[nH]c1ccccc13)C(=O)CC(C)(C)C2`, the melting point was 176 to 177 °C.
`NC1=NS(=O)N=C1NCCCCN(Cc1ccc(Cl)cc1)c1ccccn1` (centres undefined) showed a melting point of 175 to 177 °C.
In the case of `CC(C)(O)CCCCCc1cccc(CCc2cc(O)cc(O)c2)c1`, the melting point was 102 to 103 °C.
Work on `CCC(=O)NCC1CN=C(c2ccccc2F)c2cc(Cl)ccc2N1` (centres undefined) yielded a melting point of 131 to 133 °C.
With `COC(=O)C(=CN1c2ccc(F)c(F)c2OCC1C)C(=O)OC` (centres undefined) the melting point was 146 to 147 °C.
Compound `CC(=O)Nc1nc2c(c(=O)[nH]1)CCC(O)N2C(C)=O` (centres undefined) has a melting point of 202 to 205 °C.
With `CCC1(CC(=O)O)OCCc2nc(-c3ccc(Cl)cc3)sc21` (centres undefined) the melting point was 190 to 191 °C.
`CCc1cccc(CNC[C@@H](O)[C@H](Cc2cc(F)cc(F)c2)NC(=O)CC2CCCC(=O)C2)c1` (some centres undefined) gave a melting point of 140 to 150 °C.
With `CCn1cc2c(n1)c(N)nc1ccccc12` the melting point was 240 to 241 °C.
In the case of `O=c1nc(-c2cccc(S(=O)CCc3ccccc3)n2)sc2ccccc12` (centres undefined), the melting point was 164 to 166 °C.
`CCOC(=O)C1(C(=O)OCC)CC(c2ccc(Cl)cc2[N+](=O)[O-])=CN1C(C)=O` showed a melting point of 90 to 95 °C.
Compound `CC(=O)Nc1cc(C(=O)NNC(=O)c2occ(-c3ccccc3)c2-c2ccccc2)ccc1O` has a melting point of 233 to 235 °C.
`CC(C)c1c(-c2ccccc2)[nH]c2nccnc12` showed a melting point of 216 to 218 °C.
Compound `Cc1ccc(S(=O)(=O)NC(=O)OCCc2ccc(-n3c(C(C)C)nc4cc(C(=O)N(C)C)c(Cl)cc43)cc2)cc1` has a melting point of 173 to 176 °C.
Compound `O=c1nc(Nc2ccc(C(F)(F)F)cc2)sc2ncccc12` has a melting point of 280 to 283 °C.
`CCCCCCCCC1C=C(Oc2ccc(C(=O)O)o2)C=C2N=C3CCCCC3=C21` (centres undefined) gave a melting point of 142 to 144 °C.
With `N#CC1=C(n2cccc2)Oc2c(ccc3cc(C(=O)O)c(O)cc23)C1c1cccc([N+](=O)[O-])c1` (centres undefined) the melting point was > 230 °C.
Work on `CCOC(=O)/C=C/c1ccc2c(c1)nc(N)c1nc(CC)n(CC3CCOCC3)c12` yielded a melting point of 209 to 210 °C.
With `CN1C(=O)CC[C@]2(C)c3ccc(Sc4nc5cc(Cl)ccc5s4)cc3CC[C@@H]12` the melting point was 179 to 180 °C.
With `Cc1ccc(-n2c(N)nc3ccccc32)cc1-c1ccco1` the melting point was 155 to 157 °C.
With `COC(=O)NC1=NC(c2ccc(I)cc2)CN1` (centres undefined) the melting point was 229 to 230 °C.
For `COc1cc(N)c(Cl)cc1C(=O)NCC1CCN(CCCS(=O)(=O)Cc2ccc(F)cc2)CC1`, the melting point was 147 to 148 °C.
`c1ccc(CSc2nc3nc(-c4ccccc4)cc(-c4ccccc4)n3n2)cc1` showed a melting point of 122 to 124 °C.
In the case of `N=C(N)c1ccc(-n2ncn(-c3ccc(CCC(=O)O)cc3)c2=O)cc1`, the melting point was 310 to 313 °C.
In the case of `Cn1ccc2c(-n3cc(C(=O)NC(=N)N)c4cccnc43)ncnc21`, the melting point was > 260 °C.
For `CN(C)CC1COc2ccc(NC(=O)c3ccc(-c4ccc(Cl)cc4)cc3)cc2O1` (centres undefined), the melting point was 158 to 159 °C.
`Oc1ccc(-c2ccc3ccccc3c2)nc1` gave a melting point of 168 to 169 °C.
`CCOc1cc(-c2cc(C(F)(F)F)nc(Cl)n2)ccc1C(F)(F)F` showed a melting point of 89 °C.
With `Cc1ccc(CNC(=O)c2nc(N3CCOCC3)n(C)c(=O)c2O)cc1C` the melting point was 164 to 166 °C.
With `CC(C)(C)OC(=O)[C@@H](N)Cc1ccc(O)c(C(C)(C)C)c1` the melting point was 43 to 52 °C.
`CC(=O)c1ccc(C)c(N=C2NCCN2)c1` showed a melting point of 160 to 162 °C.
In the case of `Cc1nn(-c2cccnc2)c(-c2ccccc2)c1CC(=O)O`, the melting point was 197 to 199 °C.
In the case of `O=C(O)C(O)=CC(=O)c1cc(Cc2ccccc2)cn(Cc2ccccc2)c1=O`, the melting point was 158 to 159 °C.
`Cc1cccc2nc(C(C)(C)NC(=O)COC3c4ccccc4-c4ccccc43)oc(=O)c12` gave a melting point of 162 to 163 °C.
In the case of `CN(C)C(=O)c1nn(-c2ccncc2)c(=O)c2c1c1ccc(Cl)cc1n2C`, the melting point was 276 to 278 °C.
Work on `O=C(O)c1ccc2c(c1)S(=O)c1ccccc1O2` (centres undefined) yielded a melting point of 223 °C.
In the case of `O=C1c2ccc(Nc3ccc(F)cc3F)cc2CCc2cc(OCCCO)ccc21`, the melting point was 154 °C.
For `N#Cc1cccc2c1CC(Br)C2=O` (centres undefined), the melting point was 124 °C.
`OC1CSC(Oc2cc(-c3ccncc3)cnc2F)C(O)C1O` (centres undefined) gave a melting point of 98 to 102 °C.
Compound `Cc1nc[nH]c1CSCCN=C(NC#N)NCCCc1c[nH]cn1` has a melting point of 140 to 142 °C.
With `CC1(C)C(=O)NCCN1C(=O)C(Cc1ccccc1)N1C(=O)c2ccccc2C1=O` (centres undefined) the melting point was 221 to 223 °C.
`COC(=O)c1nc2n(c1C(=O)OC)-c1ccc(Cl)cc1C(c1ccccc1F)=NC2` showed a melting point of 206 to 207 °C.
In the case of `COc1cc(C(=O)NS(=O)(=O)c2ccccc2)ccc1CN1CCOc2ccc(NC(=O)CC3CCCC3)cc21`, the melting point was 190 to 192 °C.
`CC(C)(C)OC(=O)NC(Cc1ccccc1)C(=O)NC(Cc1ccccc1)C(=O)NCCc1c[nH]cn1` (centres undefined) gave a melting point of 175 to 177 °C.
`CCOC(=O)NNC(=O)Nc1c(F)cc(F)cc1F` gave a melting point of 177 to 178 °C.
Work on `COC(=O)Cn1c(CCc2ccccc2)ccc(NC(=O)CCc2ccccc2)c1=O` yielded a melting point of 105 to 108 °C.
Work on `Cc1nc2c(Cl)c(NC(=O)c3cc(Cl)ccc3Cl)ccc2s1` yielded a melting point of 175 °C.
With `COC(=O)C(c1ccccc1)C(c1ccc(OC)cc1)n1cncn1` (centres undefined) the melting point was 159 to 161 °C.
`CC(=O)NCC1CN(c2ccc(N3CCC(=C(C)C#N)C(F)C3)c(F)c2)C(=O)O1` (centres undefined) gave a melting point of 148 to 150 °C.
For `C=CCOc1ccc(C=CC(=O)N2CCN(c3nc(N)c4cc(OC)c(OC)cc4n3)CC2)cc1`, the melting point was 218 to 220 °C.
With `O=Cc1ccc(OC2OC(CO)C(O)C(O)C2O)c2ccccc12` (centres undefined) the melting point was < 255 °C.
In the case of `C#CCSc1cc(-c2nn(C)c(SC)c2Cl)c(F)cc1Cl`, the melting point was 93 to 96 °C.
Compound `CCCc1nc(N)c(C(=O)OC)[nH]1` has a melting point of 133 to 136 °C.
`O=S(=O)(c1ccccc1)n1ccc2c(CBr)cccc21` showed a melting point of 127 to 128 °C.
Work on `CC(C)OC(=O)C=CC(=O)NC(N)=O` yielded a melting point of 113 to 114 °C.
For `O=C(O)c1ccc(-c2cc([N+](=O)[O-])ccc2F)cc1`, the melting point was > 280 °C.
In the case of `CC(C)(C)C(=O)N1CCN(c2ccc(C(=O)CSc3ccnc4ccccc34)cc2)CC1`, the melting point was 174 to 176 °C.
Work on `N#Cc1ccc(-c2cc(C#N)cc(Cn3cncn3)c2)cc1` yielded a melting point of 154 to 155 °C.
`N#CCCNC(=O)c1n[nH]cc1NC(=O)c1ccc(Br)o1` showed a melting point of 220 to 222 °C.
`N#Cc1nn(-c2c(Cl)cc(C(F)(F)F)cc2Cl)cc1C1C=CCCCC1` (centres undefined) showed a melting point of 106 to 107 °C.
With `O=C1NC(C(=O)NCCO[N+](=O)[O-])C(c2ccco2)S1` (centres undefined) the melting point was 117 to 118 °C.
In the case of `Nc1ccc(S(=O)(=O)c2cc(Cl)nc(Cl)c2)cc1`, the melting point was 190 to 192 °C.
For `O=C(O)C(Cc1ccc2ccccc2c1)NC(=O)C(CS)C(F)(F)F` (centres undefined), the melting point was 165 to 167 °C.
For `N#Cc1ccnc(C(N)=O)c1N`, the melting point was > 310 °C.
`COc1ccc(-c2cc(N3CCOCC3)cc(=O)o2)cc1` showed a melting point of 212 to 213 °C.
In the case of `COc1ccc(/C=C(\C#N)c2ccc(C(F)(F)F)cc2)cc1OC1CCCC1`, the melting point was 96 to 99 °C.
For `N#CCCNC(=O)c1nn(C2CCCCO2)cc1NC(=O)c1cc(Cl)ccn1` (centres undefined), the melting point was 218 to 219 °C.
In the case of `O=C(Oc1ccccc1)c1ccc(C(=O)Oc2ccccc2)c(C(=O)Oc2ccccc2)c1`, the melting point was 156 to 158 °C.
`COc1nc(N)ccc1C(=O)CCC1CCN(CC2CCCCC2)CC1` gave a melting point of 73.2 °C.
Compound `Clc1ccc(C=NCCN=Cc2ccc(Cl)nc2)cn1` has a melting point of 170 °C.
`CS(=O)(=O)Nc1ccc([N+](=O)[O-])cc1C(=O)C1CCCCC1` showed a melting point of 178 to 179 °C.
Work on `Cc1c(-c2ccccc2)c(N2CC[C@H](N(C)C)C2)c2oc(N3CC(CO)C3)nc2c1C#N` yielded a melting point of 48 to 51 °C.
With `COc1cc(COc2nn(C)cc2C(=O)N(C)OC)ccc1OCc1nc(-c2ccccc2)oc1C` the melting point was 138 to 139 °C.
In the case of `CC(=O)Nc1ccc(F)cc1SCC#N`, the melting point was 97 to 100 °C.
With `COc1ccc(-n2nnc(-c3ccc(F)cc3Cl)c2N)cc1` the melting point was 175 to 177 °C.
